Reference: patent US20130116227A1, “BIARYL AMIDE DERIVATIVE OR PHARMACEUTICALLY ACCEPTABLE SALT THEREOF” (DAINIPPON SUMITOMO PHARMA CO., LTD., priority 2010, published 2013)

These compounds were tested against T1, aldosterone receptor (Rattus norvegicus, UniProt P22199) (assay: Binding inhibition test for aldosterone receptor ([3H]aldosterone, rat renal soluble fraction)). Details: [3H]aldosterone 2 nM, rat renal soluble fraction, in the presence of 2 μM RU-486, 4° C. about 18 hours; read-out: MR IC50.
T1 construct: centrifuged at 105,000 g for 30 minutes, and then a supernatant was collected as a renal soluble fraction; from tissue; host or cells: rat kidney (adrenalectomized rat), 105,000 g supernatant (cytosol)
T1 sequence (P22199 1-981): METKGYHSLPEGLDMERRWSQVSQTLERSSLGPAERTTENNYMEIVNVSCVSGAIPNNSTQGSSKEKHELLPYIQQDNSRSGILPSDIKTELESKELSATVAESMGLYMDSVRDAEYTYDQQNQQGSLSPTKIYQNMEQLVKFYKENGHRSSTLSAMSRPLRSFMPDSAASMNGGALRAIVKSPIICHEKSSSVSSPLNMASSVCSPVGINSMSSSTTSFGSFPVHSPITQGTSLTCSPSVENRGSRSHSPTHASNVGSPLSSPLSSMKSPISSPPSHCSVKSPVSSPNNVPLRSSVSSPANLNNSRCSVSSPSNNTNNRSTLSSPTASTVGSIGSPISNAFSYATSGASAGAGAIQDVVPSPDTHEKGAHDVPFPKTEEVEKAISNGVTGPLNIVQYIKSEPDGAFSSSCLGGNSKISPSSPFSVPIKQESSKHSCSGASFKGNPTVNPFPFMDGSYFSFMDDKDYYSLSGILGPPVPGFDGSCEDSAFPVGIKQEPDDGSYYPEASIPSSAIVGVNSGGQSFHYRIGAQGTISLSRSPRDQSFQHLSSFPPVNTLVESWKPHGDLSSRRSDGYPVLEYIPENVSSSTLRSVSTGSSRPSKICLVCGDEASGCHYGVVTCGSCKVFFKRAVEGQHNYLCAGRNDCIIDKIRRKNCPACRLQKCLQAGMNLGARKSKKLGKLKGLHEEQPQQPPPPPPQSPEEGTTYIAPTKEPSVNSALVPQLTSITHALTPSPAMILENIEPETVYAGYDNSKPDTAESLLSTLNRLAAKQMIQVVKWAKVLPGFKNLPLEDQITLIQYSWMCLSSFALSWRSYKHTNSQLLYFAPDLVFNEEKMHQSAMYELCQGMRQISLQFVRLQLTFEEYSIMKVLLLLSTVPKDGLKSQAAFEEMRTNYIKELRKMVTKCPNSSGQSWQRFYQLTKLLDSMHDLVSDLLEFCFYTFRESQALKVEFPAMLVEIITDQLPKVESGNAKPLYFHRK
In short: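 Incubation: ~18 h at 4 °C with 2 μM RU-486 to block glucocorticoid receptor, using kidney cytosol from adrenalectomized rats; free ligand removed with dextran-charcoal before scintillation counting.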

Compound | IC50
COc1cc(NC(=O)c2ccc(-c3ccccc3C(=O)OC(C)(C)C)cc2)ccc1S(N)(=O)=O [Example 31] | 250 nM
COc1cc(NC(=O)c2ccc(-c3ccccc3C(F)(F)F)cc2)ccc1S(=O)(=O)N(C)C [Example 50] | 700 nM
COc1cc(NC(=O)c2ccc(-c3ccccc3-c3cccs3)c(CO)c2)ccc1S(N)(=O)=O [Example 257] | 84 nM
COc1cc(NC(=O)c2ccc(-c3ccccc3C(F)(F)F)c(COC(C)=O)c2)ccc1S(N)(=O)=O [Example 68] | 210 nM
COc1cc(NC(=O)c2ccc(-c3ccccc3C(F)(F)F)c(CNCC3CC3)c2)ccc1S(N)(=O)=O [Example 92] | 410 nM
CS(=O)(=O)c1ccc(NC(=O)c2ccc(-c3ccccc3OC(F)(F)F)c(CN3CCC(F)(F)C3)c2)cc1 [Example 142] | 420 nM
CCN(Cc1ccccc1)Cc1cc(C(=O)Nc2ccc(S(C)(=O)=O)cc2)ccc1-c1ccccc1OC(F)(F)F [Example 189] | < 10000 nM
CCc1ccccc1-c1ccc(C(=O)Nc2ccc(S(N)(=O)=O)c(OC)c2)cc1CO [Example 126] | 310 nM

More lines, now with the values ahead:

IC50 | Compound
2500 nM | COc1cc(C(=O)Nc2ccc(-c3ccc(OCCO)cc3C(F)(F)F)c(CO)c2)ccc1S(N)(=O)=O [Example 320]
1000 nM | CCC(CC)NCc1cc(NC(=O)c2ccc(S(N)(=O)=O)c(OC)c2)ccc1-c1ccccc1C(F)(F)F [Example 355]
< 10000 nM | COc1cc(NC(=O)c2ccc(-c3cccnc3-c3cccnc3)c(C)c2)ccc1S(N)(=O)=O [Example 531]
440 nM | COc1cc(NC(=O)c2ccc(-c3ccccc3OC(F)(F)C(F)F)c(CO)c2)ccc1S(N)(=O)=O [Example 260]
1100 nM | COc1cc(C(=O)Nc2ccc(-c3ccccc3NC3CCCC3)c(C)c2)ccc1S(N)(=O)=O [Example 346]
150 nM | COc1cc(NC(=O)c2ccc(-c3ccccc3OC(F)(F)F)c(CN3CC(F)(F)C(F)(F)C3)c2)ccc1S(N)(=O)=O [Example 305]
< 10000 nM | COc1cc(NC(=O)c2ccc(-c3ccc(F)cc3C(F)(F)F)c(CNCC(F)F)c2)ccc1S(N)(=O)=O [Example 486]

Same assay, conditions: rat renal soluble fraction, [3H] aldosterone 2 nM, in the presence of 2 μM RU-486

binding affinities for aldosterone receptor | Compound
very few binding affinities | NS(=O)(=O)c1cccc(NC(=O)c2ccc(-c3ccccc3)c(CN3CCCCC3)c2)c1 [compound 2, reference compound]

What follows are compounds tested on normal rat (assay: Antagonism (in vivo antagonist activity) against reduction of Na/K ratios in DOCA induced urine of normal rat). Details: oral administration 30 minutes before DOCA 0.3 mg/kg s.c., urine collected for 8 hours.
Description: Antagonism (In Vivo Antagonist Activity) Against Reduction of Na/K Ratios in Deoxycorticosterone Acetate (DOCA) Induced Urine of Normal Rat
A rat was encaged in a metabolism cage and was collected urine for 8 hours. When a test article was orally administered, it was administered in 5 ml/kg of dosage solution amounts using 0.5% methylcellulose as a solvent. DOCA was dissolved in corn oil in 0.3 mg/ml, and was subcutaneously administered in 1 ml/kg (0.3 mg/kg). Administration timing for a test article was 30 minutes before DOCA administration. 20 ml/kg of Solution amounts of saline was orally administered when administering DOCA in order to stabilize urine amounts and to secure enough amounts. Collected urine was analyzed its amounts, and then electrolyte (sodium: Na^+ and potassium: K^+) concentrations in urine were analyzed by an automatic biochemical analyzer (manufactured by JEOL Ltd., JCA-BM1650) to calculate ratios of Na^+ and K^+.

Compound | suppression of reduction of Na/K ratios in DOCA-induced urine
COC(=O)[C@@H]1CC2=CC(=O)CC[C@]2(C)[C@@]23O[C@@H]2C[C@@]2(C)[C@@H](CC[C@@]24CCC(=O)O4)[C@H]13 [eplerenone] | suppressed reduction of Na/K ratios in DOCA-induced urine in a dose-dependent manner
